Experimental data as given in ChEMBL document CHEMBL5506073, “Discovery of Novel Ortho-Aminophenol Derivatives Targeting Lipid Peroxidation with Potent Antiferroptotic Activities” (J Med Chem, 2024).
The source made the active and inactive calls. No cut-off for these calls is given here.

What was measured:
HT-1080 [1] = assay: Inhibition of RSL3-induced ferroptosis in human HT-1080 cells assessed as cell viability incubated for 24 hrs by CCK8 assay; type: functional, cell-based; conditions: HT-1080, 24 h
Mus musculus [2] = assay: Protection against APAP-induced acute liver injury in overnight fasted C57BL/6 mouse model assessed as reversal of native liver architecture at 10 mg/kg, ip administered 1 hr prior to APAP treatment measured after 12 hrs post-APAP treatment under continuous fasting condition by H and E staining based analysis; type: functional, organism-based; conditions: time 13.0 hrs
HT-1080 [3] = assay: Effect on glutathione metabolic pathway in human HT-1080 cells assessed as change in SLC7A11 mRNA level by qRT-PCR analysis; type: functional, cell-based
HKC [4] = assay: Inhibition of RSL3-induced ferroptosis in human HKC cells assessed as cell viability at 200 nM incubated for 24 hrs by CCK8 assay; type: functional, cell-based
HT-1080 [5] = assay: Inhibition of RSL3-induced lipid peroxidation in human HT-1080 cells assessed as reduction in green fluorescence by C11-BODIPY581/591 probe based analysis; type: functional, cell-based
Mus musculus [6] = assay: Protection against kidney ischemia-reperfusion injury in C57BL/6 mouse model assessed as decrease in cytoplasmic vacuoles in kidney at 10 mg/kg, ip administered twice 1 hr prior to ischemia onset measured after 24 hrs post-ischemia by H and E staining based analysis; type: functional, organism-based; conditions: time 25.0 hrs
HTR-8/SVneo [7] = assay: Inhibition of RSL3-induced ferroptosis in human HTR-8/SVneo cells assessed as cell viability at 200 nM incubated for 24 hrs by CCK8 assay; type: functional, cell-based
HT-1080 [8] = assay: Effect on iron metabolism in human HT-1080 cells assessed as change in DMT1 mRNA level by qRT-PCR analysis; type: functional, cell-based
HT-1080 [9] = assay: Inhibition of ferroptosis in human HT-1080 cells assessed as reversal of RSL3-induced membrane rupture; type: functional, cell-based
HTR-8/SVneo [10] = assay: Inhibition of FIN56-induced ferroptosis in human HTR-8/SVneo cells assessed as cell viability at 200 nM incubated for 24 hrs by CCK8 assay; type: functional, cell-based
KHOS/NP [11] = assay: Inhibition of RSL3-induced ferroptosis in human KHOS/NP cells assessed as cell viability at 200 nM incubated for 24 hrs by CCK8 assay; type: functional, cell-based
HT-1080 [12] = assay: Inhibition of RSL3-induced lipid peroxidation in human HT-1080 cells assessed as reduction in MDA adduct accumulation by ELISA; type: functional, cell-based
Mus musculus [13] = assay: (§1) Protection against APAP-induced acute liver injury in overnight fasted C57BL/6 mouse model assessed as normal pathology of liver at 10 mg/kg, ip administered 1 hr prior to APAP treatment measured after 12 hrs post-APAP treatment under continuous fasting condition by H and E staining based analysis; type: functional, organism-based; conditions: time 13.0 hrs
HT-1080 [14] = assay: Effect on lipid metabolism in human HT-1080 cells assessed as change in ALOX15 mRNA level by qRT-PCR analysis; type: functional, cell-based
Mus musculus [15] = assay: Protection against APAP-induced acute liver injury in overnight fasted C57BL/6 mouse model assessed as decrease in plasma ALT level at 10 mg/kg, ip administered 1 hr prior to APAP treatment measured after 12 hrs post-APAP treatment under continuous fasting condition; type: functional, organism-based; conditions: time 13.0 hrs
SW480 [16] = assay: Inhibition of RSL3-induced ferroptosis in human SW480 cells assessed as cell viability at 200 nM incubated for 24 hrs by CCK8 assay; type: functional, cell-based
Mus musculus [17] = assay: Protection against APAP-induced acute liver injury in overnight fasted C57BL/6 mouse model assessed as decrease in plasma AST level at 10 mg/kg, ip administered 1 hr prior to APAP treatment measured after 12 hrs post-APAP treatment under continuous fasting condition; type: functional, organism-based; conditions: time 13.0 hrs
Mus musculus [18] = assay: Protection against kidney ischemia-reperfusion injury in C57BL/6 mouse model assessed as decrease in renal tubule dilation at 10 mg/kg, ip administered twice 1 hr prior to ischemia onset measured after 24 hrs post-ischemia by H and E staining based analysis; type: functional, organism-based; conditions: time 25.0 hrs
HK-2 [19] = assay: Inhibition of FIN56-induced ferroptosis in human HK-2 cells assessed as cell viability at 200 nM incubated for 24 hrs by CCK8 assay; type: functional, cell-based
HT-1080 [20] = assay: Inhibition of ferroptosis in human HT-1080 cells assessed as reversal of RSL3-induced normal morphological loss; type: functional, cell-based
HT-1080 [21] = assay: Effect on lipid metabolism in human HT-1080 cells assessed as change in ACSL4 mRNA level by qRT-PCR analysis; type: functional, cell-based
HT-1080 [22] = assay: Effect on lipid metabolism in human HT-1080 cells assessed as change in COX2 mRNA level by qRT-PCR analysis; type: functional, cell-based
HKC [23] = assay: Inhibition of FIN56-induced ferroptosis in human HKC cells assessed as cell viability at 200 nM incubated for 24 hrs by CCK8 assay; type: functional, cell-based
HT-1080 [24] = assay: Inhibition of ferroptosis in human HT-1080 cells assessed as reversal of RSL3-induced swelling; type: functional, cell-based
HT-1080 [25] = assay: Effect on iron metabolism in human HT-1080 cells assessed as change in FTH1 mRNA level by qRT-PCR analysis; type: functional, cell-based
HT-1080 [26] = assay: Effect on glutathione metabolic pathway in human HT-1080 cells assessed as change in GPX4 mRNA level by qRT-PCR analysis; type: functional, cell-based
Mus musculus [27] = assay: Protection against APAP-induced acute liver injury in overnight fasted C57BL/6 mouse model assessed as reduction in 4-HNE formation in liver at 10 mg/kg, ip administered 1 hr prior to APAP treatment measured after 12 hrs post-APAP treatment under continuous fasting condition by IHC analysis; type: functional, organism-based; conditions: time 13.0 hrs
SW480 [28] = assay: Inhibition of FIN56-induced ferroptosis in human SW480 cells assessed as cell viability at 200 nM incubated for 24 hrs by CCK8 assay; type: functional, cell-based
HT-1080 [29] = assay: Inhibition of RSL3-induced ferroptosis in human HT-1080 cells assessed as cell viability at 200 nM incubated for 24 hrs by CCK8 assay; type: functional, cell-based
Mus musculus [30] = assay: as §1, with “reduction in necrotic areas” for “normal pathology”; type: functional, organism-based; conditions: time 13.0 hrs
Mus musculus [31] = assay: Protection against kidney ischemia-reperfusion injury in C57BL/6 mouse model assessed as decrease in KIM-1 level in kidney at 10 mg/kg, ip administered twice 1 hr prior to ischemia onset measured after 24 hrs post-ischemia by IHC analysis; type: functional, organism-based; conditions: time 25.0 hrs
HT-1080 [32] = assay: Inhibition of FIN56-induced ferroptosis in human HT-1080 cells assessed as cell viability at 200 nM incubated for 24 hrs by CCK8 assay; type: functional, cell-based
Mus musculus [33] = assay: Protection against kidney ischemia-reperfusion injury in C57BL/6 mouse model assessed as decrease in BUN level at 10 mg/kg, ip administered twice 1 hr prior to ischemia onset measured after 24 hrs post-ischemia; type: functional, organism-based; conditions: time 25.0 hrs
HT-1080 [34] = assay: Inhibition of ferroptosis in human HT-1080 cells assessed as reversal of RSL3-induced cell shrinkage; type: functional, cell-based
HT-1080 [35] = assay: Effect on iron metabolism in human HT-1080 cells assessed as change in TFRC mRNA level by qRT-PCR analysis; type: functional, cell-based
Mus musculus [36] = assay: Protection against kidney ischemia-reperfusion injury in C57BL/6 mouse model assessed as decrease in serum creatinine level at 10 mg/kg, ip administered twice 1 hr prior to ischemia onset measured after 24 hrs post-ischemia; type: functional, organism-based; conditions: time 25.0 hrs
KHOS/NP [37] = assay: Inhibition of FIN56-induced ferroptosis in human KHOS/NP cells assessed as cell viability at 200 nM incubated for 24 hrs by CCK8 assay; type: functional, cell-based
Mus musculus [38] = assay: Protection against kidney ischemia-reperfusion injury in C57BL/6 mouse model assessed as decrease in brush edges loss in kidney at 10 mg/kg, ip administered twice 1 hr prior to ischemia onset measured after 24 hrs post-ischemia by H and E staining based analysis; type: functional, organism-based; conditions: time 25.0 hrs
[39] = Antioxidant activity assessed as DPPH radical scavenging activity at 20 uM incubated for 30 mins by absorbance based assay; type: functional
HK-2 [40] = assay: Inhibition of RSL3-induced ferroptosis in human HK-2 cells assessed as cell viability at 200 nM incubated for 24 hrs by CCK8 assay; type: functional, cell-based

Nc1c(O)cccc1-c1nnc(SCc2ccc([N+](=O)[O-])cc2)o1
EC50 (HT-1080 [1]): 871 nM

COc1ccc(/C=N/NC(=O)c2cccc(O)c2N)cc1
Activity (Mus musculus [2]): Active
Activity (HT-1080 [3]): inactive
inhibition (HKC [4]): Active
inhibition (HT-1080 [5]): Active
Activity (Mus musculus [6]): Active
inhibition (HTR-8/SVneo [7]): Active
Activity (HT-1080 [8]): inactive
inhibition (HT-1080 [9]): Active
inhibition (HTR-8/SVneo [10]): Active
inhibition (KHOS/NP [11]): Active
inhibition (HT-1080 [12]): Active
Activity (Mus musculus [13]): Active
Activity (HT-1080 [14]): inactive
Activity (Mus musculus [15]): Active
inhibition (SW480 [16]): Active
Activity (Mus musculus [17]): Active
Activity (Mus musculus [18]): Active
inhibition (HK-2 [19]): Active
inhibition (HT-1080 [20]): Active
Activity (HT-1080 [21]): inactive
Activity (HT-1080 [22]): inactive
inhibition (HKC [23]): Active
inhibition (HT-1080 [24]): Active
Activity (HT-1080 [25]): inactive
Activity (HT-1080 [26]): inactive
Activity (Mus musculus [27]): Active
inhibition (SW480 [28]): Active
inhibition (HT-1080 [29]): Active
Activity (Mus musculus [30]): Active
Activity (Mus musculus [31]): Active
inhibition (HT-1080 [32]): Active
Activity (Mus musculus [33]): Active
inhibition (HT-1080 [34]): Active
Activity (HT-1080 [35]): inactive
Activity (Mus musculus [36]): Active
EC50 (HT-1080 [1]): 40.5 nM
inhibition (KHOS/NP [37]): Active
Activity (Mus musculus [38]): Active
Activity [39]: Active
inhibition (HK-2 [40]): Active

Cc1cc2nc(-c3cccc(O)c3N)[nH]c2cc1C
Activity (Mus musculus [2]): Active
Activity (HT-1080 [3]): inactive
inhibition (HKC [4]): Active
inhibition (HT-1080 [5]): Active
Activity (Mus musculus [6]): Active
inhibition (HTR-8/SVneo [7]): Active
Activity (HT-1080 [8]): inactive
inhibition (HT-1080 [9]): Active
inhibition (HTR-8/SVneo [10]): Active
inhibition (KHOS/NP [11]): Active
inhibition (HT-1080 [12]): Active
Activity (Mus musculus [13]): Active
Activity (HT-1080 [14]): inactive
Activity (Mus musculus [15]): Active
inhibition (SW480 [16]): Active
Activity (Mus musculus [17]): Active
Activity (Mus musculus [18]): Active
inhibition (HK-2 [19]): Active
inhibition (HT-1080 [20]): Active
Activity (HT-1080 [21]): inactive
Activity (HT-1080 [22]): inactive
inhibition (HKC [23]): Active
inhibition (HT-1080 [24]): Active
Activity (HT-1080 [25]): inactive
Activity (HT-1080 [26]): inactive
Activity (Mus musculus [27]): Active
inhibition (SW480 [28]): Active
inhibition (HT-1080 [29]): Active
Activity (Mus musculus [30]): Active
Activity (Mus musculus [31]): Active
inhibition (HT-1080 [32]): Active
Activity (Mus musculus [33]): Active
inhibition (HT-1080 [34]): Active
Activity (HT-1080 [35]): inactive
Activity (Mus musculus [36]): Active
EC50 (HT-1080 [1]): 181 nM
inhibition (KHOS/NP [37]): Active
Activity (Mus musculus [38]): Active
Activity [39]: Active
inhibition (HK-2 [40]): Active

Nc1c(O)cccc1-c1nc2ccccc2[nH]1
EC50 (HT-1080 [1]): 263 nM

COc1ccc(CSc2nnc(-c3cccc(O)c3N)o2)cc1
EC50 (HT-1080 [1]): 177 nM

CCOC(=O)c1ccc(NC2CCCCC2)c(N)c1
EC50 (HT-1080 [1]): 203 nM

Nc1c(O)cccc1-c1nnc(SCc2ccc3ccccc3c2)o1
EC50 (HT-1080 [1]): 603 nM
